In this experiment the target is T1, Kinesin-like protein KIF18A (Homo sapiens, UniProt Q8NI77).
T1 sequence (Q8NI77 whole entry): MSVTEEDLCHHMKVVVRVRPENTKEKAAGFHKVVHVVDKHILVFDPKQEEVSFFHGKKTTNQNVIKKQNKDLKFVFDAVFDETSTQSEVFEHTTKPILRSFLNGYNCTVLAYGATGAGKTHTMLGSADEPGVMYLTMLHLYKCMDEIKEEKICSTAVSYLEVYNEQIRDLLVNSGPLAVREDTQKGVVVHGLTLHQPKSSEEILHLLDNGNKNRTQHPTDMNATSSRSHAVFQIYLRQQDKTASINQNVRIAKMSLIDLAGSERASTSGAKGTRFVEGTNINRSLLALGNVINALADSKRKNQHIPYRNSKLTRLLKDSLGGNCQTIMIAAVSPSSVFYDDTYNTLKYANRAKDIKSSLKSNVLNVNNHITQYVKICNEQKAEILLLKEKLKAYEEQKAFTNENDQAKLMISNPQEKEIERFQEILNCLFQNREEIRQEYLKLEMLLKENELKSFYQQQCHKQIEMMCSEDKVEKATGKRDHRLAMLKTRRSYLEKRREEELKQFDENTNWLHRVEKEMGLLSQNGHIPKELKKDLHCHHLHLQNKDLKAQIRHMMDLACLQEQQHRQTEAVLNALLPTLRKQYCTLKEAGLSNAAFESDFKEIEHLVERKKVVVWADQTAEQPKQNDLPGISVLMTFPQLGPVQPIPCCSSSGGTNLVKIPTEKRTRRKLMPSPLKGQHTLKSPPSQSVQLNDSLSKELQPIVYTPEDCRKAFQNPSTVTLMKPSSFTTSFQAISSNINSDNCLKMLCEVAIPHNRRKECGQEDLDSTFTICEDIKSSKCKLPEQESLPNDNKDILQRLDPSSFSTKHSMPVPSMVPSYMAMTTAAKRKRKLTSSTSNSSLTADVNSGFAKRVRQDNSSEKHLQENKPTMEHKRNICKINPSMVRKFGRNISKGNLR
Nature of the experiment: Inhibition of recombinant His-tagged human KIF18A (1 to 467 residues) expressed in baculovirus expression system assessed as inhibition of microtubule-stimulated ATPase activity preincubated for 15 mins followed by ATP addition and further incubated for 15 mins and measured after 40 mins by ADP-Glo reagent based assay.

`Cc1cc(NC(=O)c2cnc(S(=O)(=O)C3CC3)cc2N2CCC3(CC2)CC3)nc(N2CCC(F)(F)CC2)n1`: the IC50 (in general, the point on the concentration scale where inhibition reaches its midpoint) turned out to be 0.048 µM.
